How the values were obtained:
Assay in all cases: 3H GABA uptake, HEK293T, mixture of wildtype and mutant cDNAs ("heterozygous")
Format in all cases: cell-based, rat
[1] = system: wildtype GAT-1 + GAT-1 V125M; conditions: wildtype:V125M cDNAs 1:1; PBA 2 mM, 24 hrs
Experimental: (§1) GABA uptake activity was measured by the high-throughput 3H radio-labeling GABA uptake on a liquid scintillator with QuantaSmart. […] HEK293T cells were transfected with the wildtype or the mutant GAT-1^YFP cDNAs alone for 48 hr. […] HEK293T cells were transfected with the wildtype GAT-1^YFP alone or in mixture of the wildtype or the mutant cDNAs for 48 hr. In the mixed condition, the ratio of the wildtype GAT-1 with pcDNA or the mutant cDNAs are 1:1 with the total cDNA amount of 0.5 μg. […] Both wt and the mutant were normalized to its own DMSO treated conditions. 966 stands for the wildtype treated with CI-966 (50 μM) while 711 stands for NNC-711 (35 μM). (N=4-7 different transfections. In FIG. 4A and FIG. 4B, *P<0.05, **P<0.01, ***p<0.001 vs. wt 0. In FIG. C and FIG. 4D, *P<0.05, **P<0.01, ***p<0.001 vs. its own DMSO treated. In FIG. 4C, ns stands for no significance. One-way analysis of variance (ANOVA) and Newman-Keuls test. Values were expressed as mean±S.E.M.
(§2) The plasmid cDNA encoding enhanced yellow fluorescent protein (EYFP)-tagged rat GAT-1 has been previously described. The coding region of rGAT-1 was inserted into pEYFP-C1 (Clontech, Palo Alto, CA). QuikChange Site-directed Mutagenesis kit was utilized to introduce the GAT-1 variants into a wildtype GAT-1 plasmid. The product was then amplified via polymerase chain reaction, transformed using DH5a competent cells, and plated. A clone was chosen and grown overnight. All the GAT-1 variants were confirmed by DNA sequencing. Both the wildtype and the variant cDNAs were prepared with Qiagen Maxiprep kit.
(§3) Human embryonic kidney cells were cultured as monolayers in 100 mm^2 dishes. Cells were cultured in Dulbecco's Modified Eagle's Medium supplemented with 10% FBS and 1% penicillin/streptomycin in 37° C. in 5% CO2/95% air. Cells were maintained in culture medium until appropriate confluency for experimentation.
(§4) Briefly, cells were cultured in […] dishes for 3 days before the GABA uptake experiment in DMEM with 10% fetal bovine serum and 1% penicillin/streptomycin. The cells were then transfected with equal amounts of the wildtype or the mutant GAT-1 cDNAs (1 μg) for each condition at 24 hrs or 48 hrs after plating. GABA uptake assay was carried out 48 hrs after transfection. The cells were incubated with preincubation solution for 15 min and then incubated with preincubation solution containing 1 μci/mL 3H GABA and 10 μM unlabeled GABA for 30 min at room temperature. After washing, the cells were lysed with 0.25 N NaOH for 1 hr. Glacial acetic acid was added, and lysates were then determined on a liquid scintillator with QuantaSmart. The flux of GABA (pmol/μg/min) was averaged with at least triplets for each condition at each transfection. The average counting was taken as n=1. The untransfected condition was taken as a baseline that was subtracted from both the wildtype and the mutant conditions. The pmol/μg/min in the mutant was then normalized to the wildtype from each experiment, which was arbitrarily taken as 100%. The protocols for GABA reuptake assay in cultured mouse astrocytes, neuron or iPSC derived cells were modified from the GABA uptake protocol on HEK 293T cells. GAT-1 inhibitors CL-966 and NNC-711 were applied each time to make sure the radioactive counts were specific.
(§5) The working solution was stored at 4° C.

[2] = system: wildtype GAT-1 + GAT-1 L460R; conditions: wildtype:L460R cDNAs 1:1; PBA 2 mM, 24 hrs
Experimental: as §1, §2, §3, §4, §5

[3] = system: wildtype GAT-1 + GAT-1 W495X; conditions: wildtype:W495X cDNAs 1:1; PBA 2 mM, 24 hrs
Experimental: as §1, §2, §3, §4, §5

[4] = system: wildtype GAT-1 + GAT-1 S295L; conditions: wildtype:S295L cDNAs 1:1; PBA 2 mM, 24 hrs
Experimental: as §1, §2, §3, §4, §5

[5] = system: wildtype GAT-1 + GAT-1 A288V; conditions: wildtype:A288V cDNAs 1:1; PBA 2 mM, 24 hrs
Experimental: as §1, §2, §3, §4, §5

[6] = system: wildtype GAT-1 + GAT-1 D410E; conditions: wildtype:D410E cDNAs 1:1; PBA 2 mM, 24 hrs
Experimental: as §1, §2, §3, §4, §5

SMILES: O=C(O)CCCc1ccccc1 [PBA, 4-phenylbutyric acid]
- GABA uptake normalized to its own DMSO treated condition [1]: 1.33±0.05
- GABA uptake normalized to its own DMSO treated condition [2]: 1.214±0.037
- GABA uptake normalized to its own DMSO treated condition [3]: 1.305±0.0296
- GABA uptake normalized to its own DMSO treated condition [4]: 1.318±0.062
- GABA uptake normalized to its own DMSO treated condition [5]: 1.248±0.053
- GABA uptake normalized to its own DMSO treated condition [6]: 1.17±0.035

Reference: US20260144769A1, “4-PHENYLBUTYRATE RESTORED GABA UPTAKE AND REDUCED SEIZURES IN SLC6A1 VARIANT-MEDIATED DISORDERS” (Vanderbilt University, priority 2022, published 2026)
